{"source": "paper PMC12037037", "about": "(Proceedings of the National Academy of Sciences of the …, 2025)", "key": {"C57BL/6J mice [1]": {"tested_on": "C57BL/6J mice", "assay": "Amphetamine-induced locomotion", "type": "in vivo", "details": "(+)-JRT 1 mg/kg + AMPH 3 mg/kg", "protocol": "Figure S11. […] (A) Pretreatment with (+)-JRT (1 mg/kg,\nIP) can block AMPH-induced hyperlocomotion in female, but not male, mice. (B) Pretreatment with (+)-JRT (1 mg/kg, IP) […]\nAMPH = (+)-amphetamine; PCP = phencyclidine; VEH = vehicle; ns = not significant. *p < 0.05, **p < 0.01, ***p < 0.001, ****p < 0.0001, as compared to the comparator(s) indicated by a horizontal bar. See Methods and SI Appendix, Table S1 for full details on statistics.\n(§1) (1 picture or pasted object on this page, not shown here)\nAmphetamine-Induced Locomotion. The amphetamine-induced hyperlocomotion assay was performed using male and female C57BL/6J mice that were approximately 8 weeks old at the time of the experiments. Animals were first placed in the test arena (40 cm x 40 cm) for 15 min to obtain a basal reading of locomotion and habituate them to the testing arena.\nNext, animals were administered (+)-JRT (1 mg/kg) or VEH (2.5 mL/kg, i.p) and placed back in the test arena. After 15 min, the animals were administered (+)-amphetamine (3 mg/kg) or VEH (2.5 mL/kg) and placed back in the test arena for 60 minutes. Locomotion during the entire experiment was quantified using ANYmaze Video Tracking System, version 7.07 (Stoelting Co.). The test arena was cleaned thoroughly with 70% ethanol between trials. […]\nReads were aligned to the GRCm39 genome assembly using STAR, processed with Picard, and counted with the Subread software. Transcript inclusion criteria consisted of a minimum raw expression level of 25 transcripts in a minimum of 4 samples. Surrogate variable analysis was conducted with the sva package 2023 release v3.5.0 in R and normalization and differential expression analysis was performed with DESeq2 v4.3 with a baseMean threshold of 10. Heatmaps were created with the pheatmap v1.0.12 with sample-wise z-scores plotted and both row and column grouping allowed using pearson's distances and ward.D for clustering. Gene-wise selection criteria for heatmaps were a baseMean expression threshold of 50 to focus on robustly expressed genes, p value < 0.05, and presence in the top 250 genes sorted by absolute value of log2FC. Additionally, z score was capped at 2 for visualization purposes. Schizophrenia gene sets were extracted from a recent TWAS study (30).\nFor Figure S8G, the TWAS set was filtered for FDR < 0.01. Permutation testing was conducted to quantify the overlap of top genes from schizophrenia TWAS with the perm_test function from the bulkWarehouse package 2023 release v1.2.7.\nBriefly, the intersection of top differentially expressed genes and top TWAS genes is compared to an empirical distribution created by calculating the intersection with our top DEGs when randomly sampling candidate genes from our dataset equal to the size of the TWAS sample. […]"}, "C57BL/6J mice [2]": {"tested_on": "C57BL/6J mice", "assay": "4-odor discrimination and reversal after unpredictable mild stress", "type": "in vivo"}, "5-HT7": {"molecular_target": "5-HT7 (Homo sapiens, UniProt P34969)", "sequence (P34969 whole entry)": "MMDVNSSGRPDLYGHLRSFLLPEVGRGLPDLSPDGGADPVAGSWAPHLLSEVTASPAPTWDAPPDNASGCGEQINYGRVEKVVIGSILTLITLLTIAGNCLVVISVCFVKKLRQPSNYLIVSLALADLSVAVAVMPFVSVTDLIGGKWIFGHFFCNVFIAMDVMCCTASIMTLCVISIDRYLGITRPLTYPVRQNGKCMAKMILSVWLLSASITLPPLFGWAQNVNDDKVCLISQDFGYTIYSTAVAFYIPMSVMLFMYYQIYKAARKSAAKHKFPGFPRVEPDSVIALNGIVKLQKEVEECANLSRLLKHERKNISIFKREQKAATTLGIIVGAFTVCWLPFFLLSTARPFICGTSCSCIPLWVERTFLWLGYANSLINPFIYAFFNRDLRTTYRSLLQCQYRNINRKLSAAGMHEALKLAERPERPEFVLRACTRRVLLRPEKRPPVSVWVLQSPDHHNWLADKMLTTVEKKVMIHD", "assay": "Functional assay at 5-HT7 (Fig. S4)", "type": "cell-based", "from_the_text": "Figure S4. […] Radioligand binding (RLB) (top) and IP1 functional assays (bottom) for 5-HT1A (A), 5-HT5a (B), 5-HT6 (C), and 5-HT7 (D) receptors. Agonist or antagonist mode is indicated in the title of each graph. Data represent the mean ± SEM of 2 technical replicates.\n5-carboxamidotryptamine; ND = not determined for incomplete curves.\nas §1"}, "[3]": {"molecular_target": "psychLight S242A^5.46 (murinized variant) (Homo sapiens, UniProt P28223, S242A)", "sequence (P28223 with tags, fused parts or gaps S242A)": "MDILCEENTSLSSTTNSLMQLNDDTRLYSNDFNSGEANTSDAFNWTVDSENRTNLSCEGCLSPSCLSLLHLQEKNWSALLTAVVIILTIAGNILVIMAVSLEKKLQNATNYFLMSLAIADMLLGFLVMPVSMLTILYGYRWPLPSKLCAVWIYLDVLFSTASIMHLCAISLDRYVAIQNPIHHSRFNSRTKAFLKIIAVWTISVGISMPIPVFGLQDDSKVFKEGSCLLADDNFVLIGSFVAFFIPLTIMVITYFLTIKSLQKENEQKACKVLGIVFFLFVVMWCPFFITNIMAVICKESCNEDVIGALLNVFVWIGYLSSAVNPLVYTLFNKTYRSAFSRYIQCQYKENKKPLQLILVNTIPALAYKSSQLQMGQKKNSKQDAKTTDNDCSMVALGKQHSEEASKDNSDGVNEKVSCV", "sequence (P42212 with tags, fused parts or gaps partner)": "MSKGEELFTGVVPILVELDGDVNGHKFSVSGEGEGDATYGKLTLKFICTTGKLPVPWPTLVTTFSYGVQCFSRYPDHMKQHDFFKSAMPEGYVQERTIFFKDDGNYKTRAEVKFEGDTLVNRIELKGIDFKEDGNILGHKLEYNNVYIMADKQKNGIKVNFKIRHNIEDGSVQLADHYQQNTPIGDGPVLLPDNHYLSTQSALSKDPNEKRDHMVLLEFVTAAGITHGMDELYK", "assay": "PsychLight assay, S242A^5.46 mutant", "type": "cell-based", "quoted_text": "PsychLight Assays. Psychlight assays were performed using a previously published method (15) with slight modifications.\nBriefly, a solution of PSYLI2 cells suspended in DMEM containing 10% FBS with 5% penicillin-streptomycin was added to\npoly-D-lysine-coated glass bottom 96-well plates. The cells were plated at a density of 60,000 cells/well for the inner 60\nwells and 90,000 cells/well for the outer 36 wells and incubated at 37°C with 5% CO2 for 18–24 h prior to each experiment.\nOn the day of each experiment, the DMEM solution was replaced with 100 µL/well Hoechst solution (2 µM in HBSS) and\nincubated for 30 min at 37°C with 5% CO2. Plates were then washed 3x 200 µL HBSS and replaced with 160 µL/well of\nassay buffer (HBSS with 0.5 mM HEPES buffer, adjusted to pH = 7.4 with 1 M NaOH) and incubated for 30 min (37°C, 5%\nCO2). The cells were then imaged on a Thermo Scientific CellInsight CX7 LZR High Content Analysis Platform at 10X\n(37°C, 5% CO2). Images from nine regions of interest (ROI) per well were obtained following the default ROI pattern with\nno bias to location and no overlap of the ROIs. Baseline images were collected prior to drug addition. Following baseline\nimaging, cells were treated with 40 µL of drugs at the indicated concentrations (final solutions contained 0.2% DMSO) and\nincubated (37°C, 5% CO2) for 1 h before treatment images were acquired using identical parameters. In the case of\nactivation was quantified using the built-in Target Validation Assay (version 6.0.1.4021) on the Thermo Scientific HCS Studio\nCellomics data analysis program. Primary objects were identified and validated using the Hoechst stain and secondary\nobjects (psychLight signal) were defined as signal within 12 pixels of the primary objects. PsychLight signal was calculated\nas a ΔF/F according to the following equation:\nΔF = psychLight activation (treatment) − psychLight activation (baseline)\nF psychLight activation (baseline)\nPsychLight S242A5.46 plasmid construction and transfection. To introduce the serine to alanine mutation in […]"}}}
{"smiles": "CCN(CC)C(=O)[C@@H]1C=C2c3cccc4ccn(c34)C[C@H]2N(C)C1", "note": "[(+)-JRT]", "values": [{"measurement": "Locomotion (Figure 11A Females)", "setting": "C57BL/6J mice [1]; female mice, VEH + VEH 101.9 ± 15.04", "value": "217.2 ± 47.70"}, {"measurement": "Locomotion (Figure 11A Males)", "setting": "C57BL/6J mice [1]; male mice, VEH + VEH 59.80 ± 4.206", "value": "361.2 ± 35.54"}, {"measurement": "Discrimination (Figure 7B)", "setting": "C57BL/6J mice [2]; (+)-JRT 1 mg/kg IP + Stress (UMS), VEH + Stress 20.20 ± 1.843, VEH – Stress 21.27 ± 2.516", "value": "20.50 ± 2.212"}, {"measurement": "Reversal (Figure 7B)", "setting": "C57BL/6J mice [2]; (+)-JRT 1 mg/kg IP + Stress (UMS), VEH + Stress 21.00 ± 2.385, VEH – Stress 13.64 ± 1.744", "value": "12.40 ± 1.118"}, {"measurement": "Total Trials (Figure S17)", "setting": "C57BL/6J mice [2]; Stress + (+)-JRT 1 mg/kg IP, Stress 41.20 ± 3.972, VEH 34.91 ± 2.661", "value": "32.90 ± 2.479"}, {"measurement": "Functional activity at 5-HT7, agonist mode", "setting": "5-HT7", "value": "agonist or partial agonist"}, {"measurement": "EC50", "setting": "[3]; psychLight (S242A^5.46): EC50, agonist mode", "value": 39, "unit": "nM"}, {"measurement": "EC50", "setting": "[3]; psychLight (S242A^5.46): EC50, antagonist mode, cotreated with 10 μM serotonin (5-HT + compound)", "value": 473, "unit": "nM"}, {"measurement": "Emax", "setting": "[3]; read-out: psychLight (S242A^5.46): EMax", "value": 32, "unit": "%"}]}
